The numbers were not newly measured in paper PMC4939794 (Biochemistry, 2015), which cites them from elsewhere.

With green fluorescent protein [GFP], the CRO maturation half-life (depending on the variant and the conditions) is 19 to 83 min. The folding rates (multiphasic, three to five folding rates) is on record as 10 to 0.01 s^−1. Besides, the unfolding half-life entry (water at neutral pH, standard temperature and pressure, estimated) is on record as “greater than 1 month”.
